Measured values reported in ChEMBL document CHEMBL5385959, “Trifluoroacetic acid-mediated synthesis of xanthene constructs and their extensive anti-tuberculosis evaluation” (RSC Med Chem, 2024).
≈ marks a conversion by molar mass, not a printed value. Calls of active or inactive are those of the source. The rule behind the calls is not given here.

Columns and labels:
[1] = tested on: Mycobacterium tuberculosis; assay: Antibacterial activity against Mycobacterium tuberculosis H37Ra assessed as reduction in bacterial growth incubated for 14 days by CLSI protocol based method; type: functional; settings: 336 h, time 14 day
[2] = tested on: Mycobacterium tuberculosis; assay: Antibacterial activity against Mycobacterium tuberculosis H37Rv assessed as reduction in bacterial growth incubated for 14 days by CLSI protocol based method; type: functional; settings: 336 h, time 14 day
Pseudomonas aeruginosa = assay: Antibacterial activity against Pseudomonas aeruginosa assessed as reduction in bacterial growth incubated for 24 hrs by broth dilution method; type: functional
Escherichia coli = assay: Antibacterial activity against Escherichia coli assessed as reduction in bacterial growth incubated for 24 hrs by broth dilution method; type: functional
Bacillus subtilis = assay: Antibacterial activity against Bacillus subtilis assessed as reduction in bacterial growth incubated for 24 hrs by broth dilution method; type: functional
[3] = tested on: Mycobacterium tuberculosis; assay: Antibacterial activity against Mycobacterium tuberculosis H37Rv assessed as reduction in bacterial growth by broth microdilution method; type: functional
[4] = tested on: Mycobacterium tuberculosis; assay: Antibacterial activity against GFP-tagged Mycobacterium tuberculosis H37Rv assessed as reduction in GFP expression at half times MIC incubated for 7 days by confocal microscopic analysis; type: functional, organism-based; settings: time 7.0 day
[5] = tested on: Mycobacterium tuberculosis; assay: Bactericidal activity Mycobacterium tuberculosis assessed as reduction in bacterial growth incubated for 28 days by broth microdilution method; type: functional; settings: 672 h, time 28 day
[6] = tested on: Mycobacterium tuberculosis; assay: Synergistic antibacterial activity against Mycobacterium tuberculosis H37Rv assessed as isoniazid MIC by broth microdilution method; type: functional
[7] = tested on: Mycobacterium tuberculosis; assay: Synergistic antibacterial activity against Mycobacterium tuberculosis H37Rv assessed as ethambutol MIC by broth microdilution method; type: functional
[8] = tested on: Mycobacterium tuberculosis; assay: Synergistic antibacterial activity against Mycobacterium tuberculosis H37Rv assessed as rifampicin MIC by broth microdilution method; type: functional
[9] = tested on: Mycobacterium tuberculosis; assay: Synergistic antibacterial activity against Mycobacterium tuberculosis H37Rv assessed as reduction in microbial growth in presence of rifampicin by broth microdilution method; type: functional
[10] = tested on: Mycobacterium tuberculosis; assay: Synergistic antibacterial activity against Mycobacterium tuberculosis H37Rv assessed as reduction in microbial growth in presence of isoniazid by broth microdilution method; type: functional
[11] = tested on: Mycobacterium tuberculosis; assay: Synergistic antibacterial activity against Mycobacterium tuberculosis H37Rv assessed as reduction in microbial growth in presence of ethambutol by broth microdilution method; type: functional
[12] = tested on: Mycobacterium tuberculosis; assay: Bactericidal activity Mycobacterium tuberculosis H37Rv assessed as reduction in bacterial growth incubated for 2 days by time kill assay; type: functional; settings: 48 h, time 2 day
[13] = tested on: Mycobacterium tuberculosis; assay: Bactericidal activity Mycobacterium tuberculosis H37Rv assessed as log reduction in CFU incubated for 2 days by time kill assay; type: functional; settings: time 2 day
[14] = tested on: Mycobacterium tuberculosis; assay: Bactericidal activity Mycobacterium tuberculosis H37Rv by time kill assay; type: functional, organism-based; settings: time 16.0 day
[15] = tested on: Mycobacterium tuberculosis; assay: Bactericidal activity Mycobacterium tuberculosis H37Rv assessed as log reduction in CFU at 16 times MIC incubated for 8 days by time kill assay; type: functional; settings: time 8 day
[16] = tested on: Mycobacterium tuberculosis; assay: Bactericidal activity Mycobacterium tuberculosis H37Rv assessed as log reduction in CFU at 16 times MIC incubated for 2 to 6 days by time kill assay; type: functional; settings: time 2-6 day
HEK293 = assay: Cytotoxicity against HEK293 cells assessed as reduction in cell viability at 100 uM incubated for 48 hrs by MTT assay; type: toxicity, cell-based; settings: human, hek293, 48 h
[17] = Cytotoxicity against mouse RAW 264 cells assessed as reduction in cell viability at 150 uM incubated for 48 hrs by MTT assay; type: functional
A549 = assay: Cytotoxicity against human A549 cells assessed as reduction in cell viability at 200 uM incubated for 48 hrs by MTT assay; type: functional
[18] = tested on: Mycobacterium tuberculosis; assay: Bactericidal activity Mycobacterium tuberculosis H37Rv incubated for 2 days by time kill assay; type: functional, organism-based; settings: time 2.0 day
[19] = tested on: Mycobacterium tuberculosis; assay: Bactericidal activity Mycobacterium tuberculosis H37Rv incubated for 15 days by time kill assay; type: functional, organism-based; settings: time 15.0 day
[20] = tested on: Mycobacterium tuberculosis; assay: Bactericidal activity Mycobacterium tuberculosis H37Rv assessed as log reduction in CFU at 2 times MIC incubated for 2 days by time kill assay; type: functional; settings: time 2 day
[21] = tested on: Mycobacterium tuberculosis; assay: Bactericidal activity Mycobacterium tuberculosis H37Rv assessed as log reduction in CFU at 2 times MIC incubated for 5 to 10 days by time kill assay; type: functional, organism-based; settings: time 5-10 day
[22] = tested on: Mycobacterium tuberculosis; assay: Bactericidal activity Mycobacterium tuberculosis H37Rv at 4 times MIC incubated for 7 days by time kill assay; type: functional, organism-based; settings: time 7.0 day
[23] = tested on: Mycobacterium tuberculosis; assay: Synergistic antibacterial activity against Mycobacterium tuberculosis H37Rv assessed as log reduction in CFU measured for 2 days in presence of isoniazid by time kill assay; type: functional; settings: time 2 day
[24] = tested on: Mycobacterium tuberculosis; assay: Synergistic antibacterial activity against Mycobacterium tuberculosis H37Rv assessed as log reduction in CFU measured for 4 days in presence of isoniazid by time kill assay; type: functional; settings: time 4 day

Compound	MIC [1] [mg/L]	MIC [2] [mg/L]	MIC (Pseudomonas aeruginosa) [mg/L]	MIC (Escherichia coli) [mg/L]	MIC (Bacillus subtilis) [mg/L]	other results
COc1cc(C2C3=C(CCCC3=O)OC3=C2C(=O)CCC3)ccc1O	64 (≈ 188 µM)	64 (≈ 188 µM)	> 128	> 128	> 128	–
CC[C@@H](CO)NCCN[C@@H](CC)CO [ETHAMBUTOL]	0.019 (≈ 0.093 µM)	1.25 (≈ 6.12 µM)	–	–	–	MIC [3]: 8 mg/L (≈ 39.2 µM); Activity [4]: Active
COc1cccc(C2C3=C(CC(C)(C)CC3=O)OC3=C2C(=O)CC(C)(C)C3)c1	64 (≈ 168 µM)	64 (≈ 168 µM)	> 128	> 128	> 128	–
O=C1CCCC2=C1C(c1cccc(F)c1)C1=C(CCCC1=O)O2	64 (≈ 205 µM)	64 (≈ 205 µM)	> 128	> 128	> 128	–
CC1(C)CC(=O)C2=C(C1)OC1=C(C(=O)CC(C)(C)C1)C2c1cccc(O)c1	64 (≈ 175 µM)	64 (≈ 175 µM)	> 128	> 128	> 128	–
O=C1CCCC2=C1C(c1cccc(Cl)c1)C1=C(CCCC1=O)O2	64 (≈ 195 µM)	64 (≈ 195 µM)	> 128	> 128	> 128	–
O=C1CCCC2=C1C(c1ccc([N+](=O)[O-])cc1[N+](=O)[O-])C1=C(CCCC1=O)O2	64 (≈ 167 µM)	64 (≈ 167 µM)	> 128	> 128	> 128	–
CC1(C)CC(=O)C2=C(C1)OC1=C(C(=O)CC(C)(C)C1)C2c1cccc([N+](=O)[O-])c1	64 (≈ 162 µM)	64 (≈ 162 µM)	> 128	> 128	> 128	–
COc1ccccc1C1C2=C(CCCC2=O)OC2=C1C(=O)CCC2	64 (≈ 197 µM)	64 (≈ 197 µM)	> 128	> 128	> 128	–
N#CC1=C(N)OC2=C(C(=O)CCC2)C1c1ccccc1 (configuration not stated)	–	> 64	–	–	–	–
COc1ccc(C2C3=C(CCCC3=O)OC3=C2C(=O)CCC3)cc1O	64 (≈ 188 µM)	64 (≈ 188 µM)	> 128	> 128	> 128	–
O=C1CCCC2=C1C(c1ccc([N+](=O)[O-])cc1)C1=C(CCCC1=O)O2	64 (≈ 189 µM)	64 (≈ 189 µM)	> 128	> 128	> 128	–
O=C1CCCC2=C1C(c1cccc(Br)c1)C1=C(CCCC1=O)O2	64 (≈ 171 µM)	64 (≈ 171 µM)	> 128	> 128	> 128	–
O=C1CCCC2=C1C(c1ccccc1)C1=C(CCCC1=O)O2	64 (≈ 217 µM)	64 (≈ 217 µM)	> 128	> 128	> 128	–
CC1(C)CC(=O)C2=C(C1)OC1=C(C(=O)CC(C)(C)C1)C2c1ccc(C#N)cc1	64 (≈ 170 µM)	64 (≈ 170 µM)	> 128	> 128	> 128	–
Cc1cccc(C2C3=C(CCCC3=O)OC3=C2C(=O)CCC3)c1	64 (≈ 208 µM)	64 (≈ 208 µM)	> 128	> 128	> 128	–
O=C1CCCC2=C1C(c1cc(O)ccc1O)C1=C(CCCC1=O)O2	64 (≈ 196 µM)	64 (≈ 196 µM)	> 128	> 128	> 128	–

Compound	MIC [1] [mg/L]	MIC [2] [mg/L]	MIC (Pseudomonas aeruginosa) [mg/L]	MIC (Escherichia coli) [mg/L]	MIC (Bacillus subtilis) [mg/L]	other results
CC1(C)CC(=O)C2=C(C1)OC(N)=C(C#N)C2c1cccc(O)c1 (configuration not stated)	–	> 64	–	–	–	–
CC1(C)CC(=O)C2=C(C1)OC1=C(C(=O)CC(C)(C)C1)C2c1cccc(Br)c1	64 (≈ 149 µM)	64 (≈ 149 µM)	> 128	> 128	> 128	–
CO[C@H]1/C=C/O[C@@]2(C)Oc3c(C)c(O)c4c(O)c(c(/C=N/N5CCN(C)CC5)c(O)c4c3C2=O)NC(=O)/C(C)=C\C=C\[C@H](C)[C@H](O)[C@@H](C)[C@@H](O)[C@@H](C)[C@H](OC(C)=O)[C@@H]1C [RIFAMPIN]	–	–	–	–	–	MIC [3]: 8 mg/L (≈ 9.72 µM)
O=C1CCCC2=C1C(c1cccc(O)c1)C1=C(CCCC1=O)O2	64 (≈ 206 µM)	64 (≈ 206 µM)	> 128	> 128	> 128	–
C[C@H]1COc2c(N3CCN(C)CC3)c(F)cc3c(=O)c(C(=O)O)cn1c23 [LEVOFLOXACIN ANHYDROUS]	0.039 (≈ 0.108 µM)	2.5 (≈ 6.92 µM)	–	–	–	–
CC1(C)CC(=O)C2=C(C1)OC(N)=C(C#N)C2c1ccc(O)cc1 (configuration not stated)	–	> 64	–	–	–	–
O=C1CCCC2=C1C(c1ccc(Br)cc1)C1=C(CCCC1=O)O2	64 (≈ 171 µM)	64 (≈ 171 µM)	> 128	> 128	> 128	–
COc1ccc(OC)c(C2C3=C(CCCC3=O)OC3=C2C(=O)CCC3)c1	64 (≈ 181 µM)	64 (≈ 181 µM)	> 128	> 128	> 128	–
COc1ccc(C2C3=C(CCCC3=O)OC3=C2C(=O)CCC3)cc1	16 (≈ 49.3 µM)	16 (≈ 49.3 µM)	> 128	> 128	> 128	–
COc1cccc(C2C3=C(CCCC3=O)OC3=C2C(=O)CCC3)c1	8 (≈ 24.7 µM)	8 (≈ 24.7 µM)	> 128	> 128	> 128	MBC [5]: 8 mg/L (≈ 24.7 µM); MIC [3]: 8 mg/L (≈ 24.7 µM); MIC [6]: 0.078 mg/L; MIC [7]: 0.312 mg/L; MIC [8]: 0.009 mg/L; MIC [9]: 0.5 mg/L; MIC [10]: 0.25 mg/L; MIC [11]: 0.25 mg/L; MIC [12]: 8 mg/L (≈ 24.7 µM); Activity [13]: >2 log10CFU; Activity [14]: Dose-Dependent Effect; Activity [15]: 5 log10CFU; Activity [16]: 2 log10CFU; Activity [4]: Active; Activity (HEK293): > 75%; Activity [17]: >75%; Activity (A549): >75%
O=C1CCCC2=C1C(c1cccc([N+](=O)[O-])c1)C1=C(CCCC1=O)O2	64 (≈ 189 µM)	64 (≈ 189 µM)	> 128	> 128	> 128	–
N#CC1=C(N)Oc2c(c(=O)oc3ccccc23)C1c1ccc(O)cc1 (configuration not stated)	–	> 64	–	–	–	–
NNC(=O)c1ccncc1 [ISONIAZID]	0.019 (≈ 0.139 µM)	0.625 (≈ 4.56 µM)	–	–	–	MIC [3]: 8 mg/L (≈ 58.3 µM); Activity [4]: Active
CC1(C)CC(=O)C2=C(C1)OC1=C(C(=O)CC(C)(C)C1)C2c1ccccc1	8 (≈ 22.8 µM)	8 (≈ 22.8 µM)	> 128	> 128	> 128	MBC [5]: 8 mg/L (≈ 22.8 µM); MIC [3]: 8 mg/L (≈ 22.8 µM); MIC [6]: 0.078 mg/L; MIC [7]: 0.312 mg/L; MIC [8]: 0.009 mg/L; MIC [9]: 0.009 mg/L; MIC [10]: 0.078 mg/L; MIC [11]: 0.25 mg/L; MIC [12]: 8 mg/L (≈ 22.8 µM); Activity [18]: Active; Activity [19]: inactive; Activity [20]: 3 log10CFU; Activity [21]: Active; Activity [22]: Active; Activity [23]: 2 log10CFU; Activity [24]: 1 log10CFU; Activity [4]: Active; Activity (HEK293): > 75%; Activity [17]: >75%; Activity (A549): >75%
CC1(C)CC(=O)C2=C(C1)OC1=C(C(=O)CC(C)(C)C1)C2c1cccc(Cl)c1	64 (≈ 166 µM)	64 (≈ 166 µM)	> 128	> 128	> 128	–
CC1(C)CC(=O)C2=C(C1)OC1=C(C(=O)CC(C)(C)C1)C2c1ccc(O)cc1	64 (≈ 175 µM)	64 (≈ 175 µM)	> 128	> 128	> 128	–
